Results reported in PubChem BioAssay AID330 (DTP/NCI, 2004).
Where “and” joins values, the source holds several entries; their conditions need not be identical. Equal entries are not always repeated. Toxic doses and inconclusive results are not listed.

System: P388 leukemia ip, CD2F1 mice, survival T/C
Test: NCI In Vivo Anticancer Drug Screen. Data for tumor model P388 Leukemia (intraperitoneal) in CD2F1 (CDF1) mice
Details: endpoint: median survival time, higher = longer survival
How it was run: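 Mice carrying the transplanted tumor received test compound or vehicle. Survival was recorded in each group, and the value is the treated-group measurement divided by that of the vehicle-treated control group.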

[1] = dose: 50.0 mg/kg/injection, schedule: Q01DX009 (ip), vehicle: Klucel (hydroxypropylcellulose) (HPC)
[2] = dose: 200.0 mg/kg/injection, schedule: Q01DX009 (ip), vehicle: Klucel (hydroxypropylcellulose) (HPC)
[3] = dose: 25.0 mg/kg/injection, schedule: Q01DX009 (ip), vehicle: saline with Tween-80
[4] = dose: 25.0 mg/kg/injection, schedule: Q04DX003 (ip), vehicle: saline with Tween-80
[5] = dose: 50.0 mg/kg/injection, schedule: Q01DX009 (ip), vehicle: saline with Tween-80
[6] = dose: 50.0 mg/kg/injection, schedule: Q04DX003 (ip), vehicle: saline with Tween-80
[7] = dose: 100.0 mg/kg/injection, schedule: Q01DX009 (ip), vehicle: saline with Tween-80
[8] = dose: 100.0 mg/kg/injection, schedule: Q04DX003 (ip), vehicle: saline with Tween-80
[9] = dose: 50.0 mg/kg/injection, schedule: Q01DX005 (ip), vehicle: saline with Tween-80
[10] = dose: 100.0 mg/kg/injection, schedule: Q01DX005 (ip), vehicle: saline with Tween-80
[11] = dose: 200.0 mg/kg/injection, schedule: Q04DX003 (ip), vehicle: saline with Tween-80

`O=C1C2C3C=CC(C3)C2C(=O)N1c1ccc2nc(SC3C=CCCC3)sc2c1` (stereo not drawn) was tested, and the T/C (dose: 12.5 mg/kg/injection, schedule: Q01DX009 (ip), vehicle: Klucel (hydroxypropylcellulose) (HPC)) was 100 % of control, the T/C (dose: 25.0 mg/kg/injection, schedule: Q01DX009 (ip), vehicle: Klucel (hydroxypropylcellulose) (HPC)) was 106 % of control and the T/C [1] was 99 % of control and 97 % of control. For the same compound, the T/C [2] was 88 % of control.

`O=C(Nc1ccc2cc(S(=O)(=O)O)ccc2c1)c1ccc(N=Nc2c(S(=O)(=O)O)cc3cc(S(=O)(=O)O)cc(NC(=O)c4ccccc4)c3c2O)cc1` was tested, and the T/C [3] was 108 % of control, the T/C [4] was 91 % of control and the T/C [5] was 108 % of control. The T/C [6] was 87 % of control, the T/C [7] was 87 % of control and the T/C [8] was 95 % of control.

In the case of `COC(=O)c1ccccc1NC1OC(CO)C(O)C1O` (stereo not drawn), the T/C (dose: 60.0 mg/kg/injection, schedule: Q01DX005 (ip), vehicle: saline with Tween-80) is reported as 104 % of control, the T/C (dose: 120.0 mg/kg/injection, schedule: Q01DX005 (ip), vehicle: saline with Tween-80) is reported as 98 % of control and the T/C (dose: 240.0 mg/kg/injection, schedule: Q01DX005 (ip), vehicle: saline with Tween-80) is reported as 93 % of control.

For `CCN(CC)CCOc1ccc(C2N3Cc4ccccc4CN2c2ccccc23)cc1`, the T/C (dose: 100.0 mg/kg/injection, schedule: Q01DX001 (ip), vehicle: Klucel (hydroxypropylcellulose) (HPC)) was 99 % of control, the T/C (dose: 200.0 mg/kg/injection, schedule: Q01DX001 (ip), vehicle: Klucel (hydroxypropylcellulose) (HPC)) was 108 % of control and the T/C (dose: 400.0 mg/kg/injection, schedule: Q01DX001 (ip), vehicle: Klucel (hydroxypropylcellulose) (HPC)) was 99 % of control.

For `CCOC(=O)C(Cc1ccc(O)cc1)NCc1ccc(N(CCCl)CCCl)cc1` (stereo not drawn), the T/C (dose: 12.5 mg/kg/injection, schedule: Q01DX009 (ip), vehicle: saline with Tween-80) was 109 % of control, the T/C [3] was 113 % of control and the T/C [7] was 160 % of control.

With `COC(=O)C#CBr` the T/C (dose: 3.13 mg/kg/injection, schedule: Q04DX003 (ip), vehicle: saline) was 100 % of control and the T/C (dose: 6.25 mg/kg/injection, schedule: Q04DX003 (ip), vehicle: saline) was 100 % of control.

In the case of `O=C1Nc2cc3c(cc2C(=O)N2C/C(=N/O)CC12)OCO3` (stereo not drawn), the T/C [9] is reported as 107 % of control, the T/C [10] is reported as 99 % of control and the T/C (dose: 200.0 mg/kg/injection, schedule: Q01DX005 (ip), vehicle: saline with Tween-80) is reported as 101 % of control.

With `CC(C)(C)OC(=O)NC(COCc1ccccc1)C(=O)ON1C(=O)CCC1=O` (stereo not drawn) the T/C [9] was 114 % of control and the T/C [10] was 103 % of control.

`O=C1NC(=O)C2(CC3CCCC(C2)N3c2ccccc2)N1` (stereo not drawn) was tested, and the T/C (dose: 100.0 mg/kg/injection, schedule: Q04DX003 (ip), vehicle: DMSO) was 95 % of control, the T/C (dose: 200.0 mg/kg/injection, schedule: Q04DX003 (ip), vehicle: DMSO) was 89 % of control and the T/C (dose: 400.0 mg/kg/injection, schedule: Q04DX003 (ip), vehicle: DMSO) was 91 % of control.

For `Cc1c(C)[n+]([O-])c(-c2ccc(N(C)C)cc2)n1O`, the T/C [5] was 100 % of control, the T/C [7] was 91 % of control and the T/C (dose: 200.0 mg/kg/injection, schedule: Q01DX009 (ip), vehicle: saline with Tween-80) was 94 % of control.

For `N/C(=N\[N+](=O)[O-])N1CCCCCC1`, the T/C (dose: 12.5 mg/kg/injection, schedule: Q01DX005 (ip), vehicle: Klucel (hydroxypropylcellulose) (HPC)) was 106 % of control, the T/C (dose: 25.0 mg/kg/injection, schedule: Q01DX005 (ip), vehicle: Klucel (hydroxypropylcellulose) (HPC)) was 100 % of control and the T/C (dose: 50.0 mg/kg/injection, schedule: Q01DX005 (ip), vehicle: Klucel (hydroxypropylcellulose) (HPC)) was 107 % of control.

With `ON=C1CCCCCCC1` the T/C (dose: 50.0 mg/kg/injection, schedule: Q01DX009 (ip), vehicle: suspension in saline) was 97 % of control, the T/C (dose: 100.0 mg/kg/injection, schedule: Q01DX009 (ip), vehicle: suspension in saline) was 104 % of control and the T/C (dose: 200.0 mg/kg/injection, schedule: Q01DX009 (ip), vehicle: suspension in saline) was 103 % of control. The T/C (dose: 400.0 mg/kg/injection, schedule: Q01DX009 (ip), vehicle: suspension in saline) was 98 % of control.

For `CC1CCC(C(C)(C)c2ccccc2)C(OC(=O)C2C3CCC=C3C3CC(C)(C)CC32)C1` (stereo not drawn), the T/C (dose: 21.25 mg/kg/injection, schedule: Q01DX005 (ip), vehicle: saline with Tween-80) was 99 % of control, the T/C (dose: 42.5 mg/kg/injection, schedule: Q01DX005 (ip), vehicle: saline with Tween-80) was 96 % of control and the T/C (dose: 85.0 mg/kg/injection, schedule: Q01DX005 (ip), vehicle: saline with Tween-80) was 100 % of control.

With `O=C1Nc2ccccc2/C1=N/N=c1\scc(-c2ccc(Br)cc2)n1-c1ccc(Cl)cc1` the T/C (dose: 50.0 mg/kg/injection, schedule: Q01DX001 (ip), vehicle: saline with Tween-80) was 93 % of control, the T/C (dose: 100.0 mg/kg/injection, schedule: Q01DX001 (ip), vehicle: saline with Tween-80) was 99 % of control and the T/C (dose: 200.0 mg/kg/injection, schedule: Q01DX001 (ip), vehicle: saline with Tween-80) was 89 % of control and 94 % of control.

`CC1CC(C#N)=C(NC#N)NC1=O` (stereo not drawn) was tested, and the T/C (dose: 7.5 mg/kg/injection, schedule: Q01DX005 (ip), vehicle: saline with Tween-80) was 108 % of control, the T/C (dose: 7.5 mg/kg/injection, schedule: Q01DX005 (ip), vehicle: saline) was 101 % of control and the T/C (dose: 15.0 mg/kg/injection, schedule: Q01DX005 (ip), vehicle: saline with Tween-80) was 111 % of control. For the same compound, the T/C (dose: 15.0 mg/kg/injection, schedule: Q01DX005 (ip), vehicle: saline) was 106 % of control.

`CCSc1ccc2c3c(cccc13)C(=O)N(CCc1ccccn1)C2=O` was tested, and the T/C [1] was 98 % of control, the T/C (dose: 100.0 mg/kg/injection, schedule: Q01DX009 (ip), vehicle: Klucel (hydroxypropylcellulose) (HPC)) was 99 % of control and the T/C [2] was 92 % of control.

`CC1=NN(C(=O)c2cccnc2)C(=O)C1N=Nc1ccc(S(=O)(=O)Nc2nccs2)cc1` (stereo not drawn) was tested, and the T/C [8] was 101 % of control, the T/C [11] was 99 % of control and the T/C (dose: 400.0 mg/kg/injection, schedule: Q04DX003 (ip), vehicle: saline with Tween-80) was 95 % of control.

For `c1ccc(-c2n[nH]c3ccccc23)cc1`, the T/C [4] was 101 % of control, the T/C [6] was 110 % of control and the T/C [8] was 101 % of control. For the same compound, the T/C [11] was 99 % of control.

For `Cc1nnc(SCC2=C(C(=O)O)N3C(=O)C(NC(=O)Cn4cc(Cl)c(=O)c(Cl)c4)C3SC2)s1` (stereo not drawn), the T/C (dose: 50.0 mg/kg/injection, schedule: Q01DX009 (ip), vehicle: water) was 105 % of control, the T/C (dose: 100.0 mg/kg/injection, schedule: Q01DX009 (ip), vehicle: water) was 101 % of control and the T/C (dose: 200.0 mg/kg/injection, schedule: Q01DX009 (ip), vehicle: water) was 100 % of control.

`COc1ccc2c(c1O)C1=CC(O)CCC13CCN(C)C3C2` (stereo not drawn) was tested, and the T/C (dose: 100.0 mg/kg/injection, schedule: Q04DX002 (ip), vehicle: suspension in saline) was 100 % of control, the T/C (dose: 200.0 mg/kg/injection, schedule: Q04DX002 (ip), vehicle: suspension in saline) was 96 % of control and the T/C (dose: 400.0 mg/kg/injection, schedule: Q04DX002 (ip), vehicle: suspension in saline) was 103 % of control.

For `CNc1ccc(CN2CCCCC2)cc1C`, the T/C (dose: 0.93 mg/kg/injection, schedule: Q01DX005 (ip), vehicle: Klucel (hydroxypropylcellulose) (HPC)) was 100 % of control and 92 % of control, the T/C (dose: 1.87 mg/kg/injection, schedule: Q01DX005 (ip), vehicle: Klucel (hydroxypropylcellulose) (HPC)) was 100 % of control and 97 % of control and the T/C (dose: 3.75 mg/kg/injection, schedule: Q01DX005 (ip), vehicle: Klucel (hydroxypropylcellulose) (HPC)) was 99 % of control and 95 % of control and 96 % of control.

For `COc1cccc(N2CCN(CC(O)COc3cc4c(c5c3CCCC5)CCCC4)CC2)c1` (stereo not drawn), the T/C (dose: 100.0 mg/kg/injection, schedule: Q04DX003 (ip), vehicle: Klucel (hydroxypropylcellulose) (HPC)) was 93 % of control, the T/C (dose: 200.0 mg/kg/injection, schedule: Q04DX003 (ip), vehicle: Klucel (hydroxypropylcellulose) (HPC)) was 92 % of control and the T/C (dose: 400.0 mg/kg/injection, schedule: Q04DX003 (ip), vehicle: Klucel (hydroxypropylcellulose) (HPC)) was 91 % of control.

`C=CC1=NC(C)(C)CC(C)O1` (stereo not drawn) was tested, and the T/C (dose: 1.56 mg/kg/injection, schedule: Q01DX009 (ip), vehicle: water) was 104 % of control, the T/C (dose: 3.13 mg/kg/injection, schedule: Q01DX009 (ip), vehicle: water) was 107 % of control and the T/C (dose: 6.25 mg/kg/injection, schedule: Q01DX009 (ip), vehicle: water) was 116 % of control. The T/C (dose: 12.5 mg/kg/injection, schedule: Q01DX009 (ip), vehicle: water) was 109 % of control.

`O=[N+]([O-])c1ccc(S(=O)(=O)Nc2ccc(-c3ccccc3)cc2)cc1` was tested, and the T/C (dose: 100.0 mg/kg/injection, schedule: Q01DX009 (ip), vehicle: other) was 105 % of control, the T/C (dose: 200.0 mg/kg/injection, schedule: Q01DX009 (ip), vehicle: other) was 100 % of control and the T/C (dose: 400.0 mg/kg/injection, schedule: Q01DX009 (ip), vehicle: other) was 100 % of control.
